Assay results reported in ChEMBL document CHEMBL1132823, “Fatty acid amide hydrolase substrate specificity” (Bioorg Med Chem Lett, 2000).

Biological target: T1, Fatty-acid amide hydrolase 1 (Rattus norvegicus) (UniProt P97612)
T1 sequence (whole entry): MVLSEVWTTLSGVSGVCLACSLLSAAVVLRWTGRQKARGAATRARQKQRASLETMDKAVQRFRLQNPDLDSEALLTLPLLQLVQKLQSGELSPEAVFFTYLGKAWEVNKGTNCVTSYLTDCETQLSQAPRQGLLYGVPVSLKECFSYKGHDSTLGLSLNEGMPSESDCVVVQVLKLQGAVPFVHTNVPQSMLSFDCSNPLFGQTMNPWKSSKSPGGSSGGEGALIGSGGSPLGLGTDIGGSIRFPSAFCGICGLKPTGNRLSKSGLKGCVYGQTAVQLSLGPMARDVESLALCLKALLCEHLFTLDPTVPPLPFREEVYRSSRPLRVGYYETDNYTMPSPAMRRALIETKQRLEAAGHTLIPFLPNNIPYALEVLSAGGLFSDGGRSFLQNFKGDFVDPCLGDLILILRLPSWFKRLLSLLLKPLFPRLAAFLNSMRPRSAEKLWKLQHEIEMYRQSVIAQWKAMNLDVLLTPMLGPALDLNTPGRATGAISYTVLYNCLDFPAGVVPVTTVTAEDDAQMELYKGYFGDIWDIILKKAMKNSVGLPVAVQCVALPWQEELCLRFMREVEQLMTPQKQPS
Assay: Relative rate of fatty acid amide hydrolase hydrolysis of compound compared to that of oleamide.

| SMILES | Relative rate of hydrolysis |
| --- | --- |
| CCCCCCCCCCCCCCCC(N)=O | 0.72 |
| CCCCCCCC/C=C/CCCCCCCCCCCCCC(N)=O | 0.82 |
| CCCCCCCCCCC/C=C\CCCCC(N)=O | 0.91 |
| CCCCCCCC/C=C/CCCCCCOC(N)=O | 0.1 |
| CCCCC/C=C/C/C=C/C/C=C/C/C=C/CCCC(N)=O | 3.11 |
| CCCCCCCC/C=C\CCCCCCCC(N)=O | 1 |
| CCCCCC/C=C\CCCCCCCCCCCC(N)=O | 1.03 |
| CCCCC/C=C/C/C=C/CCCCCCCC(N)=O (stereo in doubt; 21) | 1.04 |
| CCCC/C=C/CCCCCCCC(N)=O | 0.86 |
| CCCCC/C=C/C/C=C/C/C=C/CCCCCCC(N)=O | 1.38 |
| CCCCCCCC/C=C/CCCCCCC(C)C(N)=O (configuration not stated) | 0.07 |
| CCCCC/C=C\CCCCCCCCCCC(N)=O | 0.92 |
| CC/C=C/C/C=C/C/C=C/CCCCCCCCCC(N)=O | 1.4 |
| CCCCCCCCCCCCCCCCCC(N)=O | 0.69 |
| CCCCC/C=C/C/C=C/CCCCCCCCCC(N)=O | 1.27 |
| CCCCC/C=C/C/C=C/CCCCCCCC(N)=O (stereo in doubt; 22) | 0.54 |

| SMILES | Relative rate of hydrolysis |
| --- | --- |
| CCCCCC/C=C/CCCCCCCC(N)=O | 0.79 |
| CC/C=C\CCCCCCCCCCCCCC(N)=O | 0.9 |
| CCCC/C=C\CCCCCCCCCCCC(N)=O | 0.82 |
| CCCCCCCCCCCCCC(N)=O | 0.83 |
| CCCCC/C=C\C/C=C\C/C=C\C/C=C\CCCC(=O)NCCO | 1.68 |
| CCCCCCCC/C=C\CCCCCCCCCC(N)=O | 1.05 |
| CCCCCCCC/C=C/CCCCCCC(C)(C)C(N)=O | 0.03 |
| CCCCCCCCCCCCCC/C=C\CCCC(N)=O | 1.16 |
| CC/C=C/C/C=C/C/C=C/C/C=C/C/C=C/C/C=C/CCC(N)=O | 0.82 |
| C1CCCCCCNCCCCC1 | 0.74 |
| CCCCCCCC/C=C/CCCCCCCCCCCC(N)=O | 0.83 |
| CCCCCCCCCC/C=C\CCCCCC(N)=O | 1.09 |
| CC/C=C/C/C=C/C/C=C/CCCCCCCC(N)=O | 1.38 |
| CCCCCCCC/C=C/CCCCCCNC(N)=O | < 0.001 |
| CCCCCCCCCCC/C=C\CCCCCCC(N)=O | 1.12 |
| CCCCCCCC/C=C/CCCCCCCC(N)=O | 0.52 |
